Experimental data reported in patent publication US20230416248A1, “COMPOUNDS AND USES THEREOF” (Foghorn Therapeutics Inc., priority 2020, published 2023).

Assays:
BRG-1 = target: T1, BRG-1 (Homo sapiens, UniProt P51532); test: ATPase catalytic activity of BRG-1, ADP-Glo in vitro biochemical assay; details: ATPase catalytic activity, ADP-Glo; 30 nM BRG-1, 400 μM ATP; read-out: BRG1 IC50
T1 construct: made in house; host or cells: High Five insect cells
Procedure, shortened: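 Once the ATPase reaction finished, leftover ATP was depleted over 40 minutes at room temperature. Generated ADP was next turned back into ATP during a 60-minute room-temperature step. Luciferase-derived light was then measured.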

BRM = target: T2, BRM (Homo sapiens, UniProt P51531); test: ATPase catalytic activity of BRM, ADP-Glo in vitro biochemical assay; details: for IC50: ATPase catalytic activity, ADP-Glo, 30 nM BRM, 400 μM ATP; for Ratio*: ratio of BRG1 IC50 to BRM IC50
T2 construct: made in house; host or cells: High Five insect cells
Procedure, shortened: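 ADP-Glo luminescence, after depletion of leftover ATP and conversion of ADP, reported the activity. The 1 h room-temperature reaction held 400 μM ATP, 20 nM salmon sperm DNA and 30 nM BRM in 20 mM Tris pH 8, 20 mM MgCl2, 50 mM NaCl, 0.1% Tween-20, 1 mM DTT.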

T1 sequence (P51532 whole entry): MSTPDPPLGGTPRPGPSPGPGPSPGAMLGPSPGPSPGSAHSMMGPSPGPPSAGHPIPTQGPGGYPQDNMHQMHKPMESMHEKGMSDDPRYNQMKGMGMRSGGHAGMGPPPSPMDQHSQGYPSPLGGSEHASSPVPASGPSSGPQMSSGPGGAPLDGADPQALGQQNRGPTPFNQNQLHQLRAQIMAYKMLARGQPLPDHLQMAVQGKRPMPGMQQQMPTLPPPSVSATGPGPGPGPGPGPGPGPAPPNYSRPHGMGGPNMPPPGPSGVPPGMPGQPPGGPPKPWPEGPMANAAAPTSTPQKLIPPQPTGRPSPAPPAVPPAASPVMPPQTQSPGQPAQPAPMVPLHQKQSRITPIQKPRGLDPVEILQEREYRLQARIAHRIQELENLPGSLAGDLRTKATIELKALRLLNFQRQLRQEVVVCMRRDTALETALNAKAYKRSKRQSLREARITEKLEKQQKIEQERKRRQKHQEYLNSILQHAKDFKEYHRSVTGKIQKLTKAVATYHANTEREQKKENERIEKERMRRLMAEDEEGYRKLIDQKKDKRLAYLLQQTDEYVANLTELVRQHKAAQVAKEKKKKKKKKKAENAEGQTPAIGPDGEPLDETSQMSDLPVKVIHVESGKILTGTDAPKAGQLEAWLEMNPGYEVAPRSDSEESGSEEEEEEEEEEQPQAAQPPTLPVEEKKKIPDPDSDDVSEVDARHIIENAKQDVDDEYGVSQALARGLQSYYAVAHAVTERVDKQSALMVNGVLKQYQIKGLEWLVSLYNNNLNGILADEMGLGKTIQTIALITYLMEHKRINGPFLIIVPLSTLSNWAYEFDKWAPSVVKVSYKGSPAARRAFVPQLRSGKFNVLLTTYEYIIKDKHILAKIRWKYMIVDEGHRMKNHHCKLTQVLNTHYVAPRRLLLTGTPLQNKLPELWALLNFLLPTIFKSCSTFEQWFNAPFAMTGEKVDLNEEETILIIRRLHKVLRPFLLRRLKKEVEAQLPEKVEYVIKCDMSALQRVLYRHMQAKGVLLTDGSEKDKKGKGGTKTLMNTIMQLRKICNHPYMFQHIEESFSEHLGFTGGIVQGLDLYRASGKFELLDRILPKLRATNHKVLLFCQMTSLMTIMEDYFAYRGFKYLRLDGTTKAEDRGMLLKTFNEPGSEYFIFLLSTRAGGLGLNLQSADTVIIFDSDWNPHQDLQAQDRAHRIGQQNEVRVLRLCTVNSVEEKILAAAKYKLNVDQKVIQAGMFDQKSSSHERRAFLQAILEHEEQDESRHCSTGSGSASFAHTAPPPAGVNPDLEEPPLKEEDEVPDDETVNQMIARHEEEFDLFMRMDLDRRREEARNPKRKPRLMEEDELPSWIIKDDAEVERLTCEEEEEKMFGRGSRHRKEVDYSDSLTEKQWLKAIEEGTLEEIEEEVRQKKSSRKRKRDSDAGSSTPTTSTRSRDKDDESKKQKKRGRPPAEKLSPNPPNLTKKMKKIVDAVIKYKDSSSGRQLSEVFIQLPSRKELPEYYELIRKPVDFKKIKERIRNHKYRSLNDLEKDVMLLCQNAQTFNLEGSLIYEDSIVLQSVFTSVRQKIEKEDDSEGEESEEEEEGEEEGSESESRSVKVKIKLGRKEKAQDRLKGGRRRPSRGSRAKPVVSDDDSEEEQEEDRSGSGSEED
T2 sequence (P51531 whole entry): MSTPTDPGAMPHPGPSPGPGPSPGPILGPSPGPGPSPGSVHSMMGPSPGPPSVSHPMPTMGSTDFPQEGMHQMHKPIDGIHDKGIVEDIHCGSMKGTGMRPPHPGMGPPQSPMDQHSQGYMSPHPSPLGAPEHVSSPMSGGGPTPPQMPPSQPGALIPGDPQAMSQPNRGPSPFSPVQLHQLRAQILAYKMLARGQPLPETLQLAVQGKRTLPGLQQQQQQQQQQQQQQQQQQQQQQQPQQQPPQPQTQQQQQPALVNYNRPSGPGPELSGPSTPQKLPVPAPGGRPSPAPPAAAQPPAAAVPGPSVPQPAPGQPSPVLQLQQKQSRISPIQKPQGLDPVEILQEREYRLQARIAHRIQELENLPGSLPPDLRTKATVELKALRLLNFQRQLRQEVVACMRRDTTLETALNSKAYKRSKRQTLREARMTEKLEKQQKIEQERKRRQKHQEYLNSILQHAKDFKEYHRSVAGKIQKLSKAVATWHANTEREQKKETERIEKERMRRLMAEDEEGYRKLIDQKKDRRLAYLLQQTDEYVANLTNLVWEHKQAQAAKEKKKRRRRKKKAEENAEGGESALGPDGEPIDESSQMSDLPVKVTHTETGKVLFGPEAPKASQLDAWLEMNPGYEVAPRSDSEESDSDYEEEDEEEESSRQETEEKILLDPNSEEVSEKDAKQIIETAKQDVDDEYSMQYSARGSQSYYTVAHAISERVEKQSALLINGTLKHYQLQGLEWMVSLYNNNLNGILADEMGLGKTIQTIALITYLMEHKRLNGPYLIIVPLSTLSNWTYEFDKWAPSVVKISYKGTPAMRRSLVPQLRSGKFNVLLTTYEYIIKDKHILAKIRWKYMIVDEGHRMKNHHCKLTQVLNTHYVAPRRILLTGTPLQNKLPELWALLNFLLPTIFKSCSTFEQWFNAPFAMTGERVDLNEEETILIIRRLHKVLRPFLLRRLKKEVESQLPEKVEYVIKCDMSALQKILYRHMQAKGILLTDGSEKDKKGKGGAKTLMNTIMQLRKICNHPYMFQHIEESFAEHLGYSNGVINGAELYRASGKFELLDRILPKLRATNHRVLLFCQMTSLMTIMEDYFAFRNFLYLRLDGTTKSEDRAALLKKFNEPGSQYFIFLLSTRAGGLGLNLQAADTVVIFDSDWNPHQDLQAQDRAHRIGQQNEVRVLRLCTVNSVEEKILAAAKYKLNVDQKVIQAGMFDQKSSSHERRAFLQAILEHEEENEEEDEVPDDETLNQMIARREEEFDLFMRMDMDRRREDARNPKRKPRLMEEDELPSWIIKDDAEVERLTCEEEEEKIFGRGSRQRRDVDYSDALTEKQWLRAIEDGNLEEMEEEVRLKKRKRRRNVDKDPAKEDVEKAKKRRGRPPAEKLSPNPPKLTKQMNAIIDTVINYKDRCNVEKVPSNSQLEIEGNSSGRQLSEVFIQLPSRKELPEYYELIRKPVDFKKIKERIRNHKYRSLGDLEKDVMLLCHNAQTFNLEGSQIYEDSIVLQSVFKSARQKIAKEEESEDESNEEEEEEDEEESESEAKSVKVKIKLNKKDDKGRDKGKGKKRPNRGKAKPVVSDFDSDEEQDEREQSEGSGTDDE

## CC1COCc2ccc(C(=O)NCc3cc4nc(-c5cccc(N6C[C@@H](C)O[C@@H](C)C6)n5)ccc4cn3)cc2S1(=O)=O (stereo partly drawn) [Compound 319]
BRG-1
  IC50: 329 nM
BRM
  IC50: 21.1 nM
  Ratio*: 15.59

## COc1cc(C(F)F)ccc1-c1ccc2cnc(CNC(=O)c3ccc4c(c3)S(=O)(=O)[C@@H](C)COC4)cc2n1 [Compound 320]
BRG-1
  IC50: 226 nM
BRM
  IC50: 12 nM
  Ratio*: 18.81

## O=C(NCc1cc2nc(-c3cccc(N4CC[C@@H]5C[C@@H]5C4)n3)ccc2cn1)c1ccc2c(c1)S(=O)(=O)CCOC2 [Compound 321]
BRG-1
  IC50: 195 nM
BRM
  IC50: 16 nM
  Ratio*: 12.19

## O=C(NCc1cc2nc(-c3cccc(N4CC[C@H]5C[C@H]5C4)n3)ccc2cn1)c1ccc2c(c1)S(=O)(=O)CCOC2 [Compound 322]
BRG-1
  IC50: 120 nM
BRM
  IC50: 11 nM
  Ratio*: 10.96

## COC1(CN(C)c2cccc(-c3ccc4cnc(CNC(=O)c5ccc6c(c5)S(=O)(=O)CCOC6)cc4n3)n2)CC1 [Compound 323]
BRG-1
  IC50: 230 nM
BRM
  IC50: 17.1 nM
  Ratio*: 13.46

## CC1CCc2ccc(C(=O)NCc3cc4nc(-c5cccc(N6C[C@@H](C)O[C@@H](C)C6)n5)ccc4cn3)cc2S1(=O)=O (stereo partly drawn) [Compound 324]
BRG-1
  IC50: 614 nM
BRM
  IC50: 24.8 nM
  Ratio*: 24.73

## C[C@@H]1CN(c2cccc(-c3ccc4cnc([C@H](C)NC(=O)c5ccc6c(c5)S(=O)(=O)[C@@H](C)COC6)cc4n3)n2)C[C@H](C)O1 [Compound 325]
BRG-1
  IC50: 174 nM
BRM
  IC50: 10.6 nM
  Ratio*: 16.33

## COCCN1c2cccc(-c3ccc4cnc(CNC(=O)c5ccc6c(c5)S(=O)(=O)CCOC6)cc4n3)c2OCC1C (stereo not drawn) [Compound 326]
BRG-1
  IC50: 81 nM
BRM
  IC50: 9.9 nM
  Ratio*: 8.22

## O=C(NCc1cc2nc(-c3ccc(Cl)c(OC(F)F)n3)ccc2cn1)c1ccc2c(c1)S(=O)(=O)CCOC2 [Compound 327]
BRG-1
  IC50: 291 nM
BRM
  IC50: 19.2 nM
  Ratio*: 15.15

## COc1nc(C(F)F)ccc1-c1ccc2cnc(CNC(=O)c3ccc4c(c3)S(=O)(=O)CCOC4)cc2n1 [Compound 329]
BRG-1
  IC50: 130 nM
BRM
  IC50: 8.6 nM
  Ratio*: 15.19

## CCOc1cccc(-c2ccc3cnc(CNC(=O)c4ccc5c(c4)S(=O)(=O)[C@@H](C)COC5)cc3n2)n1 [Compound 330]
BRG-1
  IC50: 473 nM
BRM
  IC50: 11 nM
  Ratio*: 43.09

## C[C@H]1COCc2ccc(C(=O)NCc3cc4nc(-c5cccc(C6CC6)n5)ccc4cn3)cc2S1(=O)=O [Compound 331]
BRG-1
  IC50: 418 nM
BRM
  IC50: 13.5 nM
  Ratio*: 30.98

## CO[C@H]1CN(c2cccc(-c3ccc4cnc(CNC(=O)c5ccc6c(c5)S(=O)(=O)CCOC6)cc4n3)n2)C[C@H]1F [Compound 332]
BRG-1
  IC50: 224 nM
BRM
  IC50: 16.6 nM
  Ratio*: 13.49

## CO[C@@H]1CN(c2cccc(-c3ccc4cnc(CNC(=O)c5ccc6c(c5)S(=O)(=O)CCOC6)cc4n3)n2)C[C@@H]1F [Compound 333]
BRG-1
  IC50: 227 nM
BRM
  IC50: 17.1 nM
  Ratio*: 13.29

## C[C@@H]1C[C@@H](N(C)c2cccc(-c3ccc4cnc(CNC(=O)c5ccc6c(c5)S(=O)(=O)CCOC6)cc4n3)n2)C[C@H](C)O1 [Compound 334]
BRG-1
  IC50: 377 nM
BRM
  IC50: 21.2 nM
  Ratio*: 17.82

## COc1cc(C(F)(F)F)ccc1-c1ccc2cnc(CNC(=O)c3ccc4c(c3)S(=O)(=O)CCOC4)cc2n1 [Compound 335]
BRG-1
  IC50: 288 nM
BRM
  IC50: 24.3 nM
  Ratio*: 11.87

## COCCn1ccc2c(-c3ccc4cnc(CNC(=O)c5ccc6c(c5)S(=O)(=O)CCOC6)cc4n3)ccnc21 [Compound 336]
BRG-1
  IC50: 107 nM
BRM
  IC50: 6.6 nM
  Ratio*: 16.08

## CCN(c1cccc(-c2ccc3cnc(CNC(=O)c4ccc5c(c4)S(=O)(=O)CCOC5)cc3n2)n1)C1CC1 [Compound 337]
BRG-1
  IC50: 211 nM
BRM
  IC50: 21.9 nM
  Ratio*: 9.67

## CCN(c1cccc(-c2ccc3cnc(CNC(=O)c4cc(F)c5c(c4)S(=O)(=O)CCOC5)cc3n2)n1)C1CC1 [Compound 338]
BRG-1
  IC50: 219 nM
BRM
  IC50: 20.1 nM
  Ratio*: 10.88

## CO[C@H]1CN(c2cccc(-c3ccc4cnc(CNC(=O)c5ccc6c(c5)S(=O)(=O)CCOC6)cc4n3)n2)C[C@@H]1F [Compound 339]
BRG-1
  IC50: 85.8 nM
BRM
  IC50: 9.6 nM
  Ratio*: 8.89

## CO[C@@H]1CN(c2cccc(-c3ccc4cnc(CNC(=O)c5ccc6c(c5)S(=O)(=O)CCOC6)cc4n3)n2)C[C@H]1F [Compound 340]
BRG-1
  IC50: 309 nM
BRM
  IC50: 22.2 nM
  Ratio*: 13.96

## O=C(NCc1cc2nc(-c3cccc(N4CCOCC(F)(F)C4)n3)ccc2cn1)c1ccc2c(c1)S(=O)(=O)CCOC2 [Compound 341]
BRG-1
  IC50: 185 nM
BRM
  IC50: 25.1 nM
  Ratio*: 7.37

## CN1CC[C@H](Oc2cccc(-c3ccc4cnc(CNC(=O)c5ccc6c(c5)S(=O)(=O)CCOC6)cc4n3)n2)C1 [Compound 342]
BRG-1
  IC50: 4320 nM
BRM
  IC50: 283 nM
  Ratio*: 15.24

## COC1CCS(=O)(=O)c2cc(C(=O)NCc3cc4nc(-c5cccc(N6C[C@@H](C)O[C@@H](C)C6)n5)ccc4cn3)ccc2C1 (stereo partly drawn) [Compound 344]
BRG-1
  IC50: 20.3 nM
BRM
  IC50: 7.6 nM
  Ratio*: 2.68

## CCN(C[C@H](C)OC)c1cccc(-c2ccc3cnc(CNC(=O)c4ccc5c(c4)S(=O)(=O)CCOC5)cc3n2)n1 [Compound 345]
BRG-1
  IC50: 251 nM
BRM
  IC50: 15 nM
  Ratio*: 16.77

## COC[C@H]1C[C@H]1c1cccc(-c2ccc3cnc(CNC(=O)c4ccc5c(c4)S(=O)(=O)CCOC5)cc3n2)n1 [Compound 346]
BRG-1
  IC50: 2770 nM
BRM
  IC50: 368 nM
  Ratio*: 7.55

## COCCN(C)c1cccc(-c2ccc3cnc(CNC(=O)c4ccc5c(c4)S(=O)(=O)CCOC5)cc3n2)c1OC [Compound 347]
BRG-1
  IC50: 3730 nM
BRM
  IC50: 1230 nM
  Ratio*: 3.03

## CS(=O)(=O)c1cc(C(=O)NCc2cc3nc(-c4cn([C@H]5C[C@H](F)C5)nc4OC(F)F)ccc3cn2)ccc1C(F)F [Compound 348]
BRG-1
  IC50: 2560 nM
BRM
  IC50: 74.3 nM
  Ratio*: 34.42

## COCCN(c1cccc(-c2ccc3cnc(CNC(=O)c4ccc5c(c4)S(=O)(=O)CCOC5)cc3n2)n1)C1CC1 [Compound 349]
BRG-1
  IC50: 253 nM
BRM
  IC50: 24.1 nM
  Ratio*: 10.47

## Cc1ccc2c(c1)CCCN2c1ccc2cnc(CNC(=O)c3ccc4c(c3)S(=O)(=O)CCOC4)cc2n1 [Compound 350]
BRG-1
  IC50: 105 nM
BRM
  IC50: 8.1 nM
  Ratio*: 12.99

## CO[C@H]1CCN(c2cccc(-c3ccc4cnc(CNC(=O)c5ccc6c(c5)S(=O)(=O)CCOC6)cc4n3)n2)C[C@@H]1C [Compound 352]
BRG-1
  IC50: 483 nM
BRM
  IC50: 60.2 nM
  Ratio*: 8.02

## CO[C@@H]1CCN(c2cccc(-c3ccc4cnc(CNC(=O)c5ccc6c(c5)S(=O)(=O)CCOC6)cc4n3)n2)C[C@H]1C [Compound 353]
BRG-1
  IC50: 125 nM
BRM
  IC50: 9.5 nM
  Ratio*: 13.13

## Cc1cc(C(=O)NCc2cc3nc(-c4cccc(N5C[C@@H](C)O[C@@H](C)C5)n4)ccc3cn2)cc2c1COCCS2(=O)=O [Compound 354]
BRG-1
  IC50: 415 nM
BRM
  IC50: 14 nM
  Ratio*: 29.57

## C[C@@H]1CN(c2cccc(-c3ccc4cnc(CNC(=O)c5cc(C(F)F)c6c(c5)S(=O)(=O)CCOC6)cc4n3)n2)C[C@H](C)O1 [Compound 355]
BRG-1
  IC50: 63.9 nM
BRM
  IC50: 8.7 nM
  Ratio*: 7.36
